According to patent US20090163578A1, “NOVEL MODIFICATION OF IMMUNOMODULATORY PROTEIN” (UNIVERSITY OF MEDICINE AND DENTISTRY OF NEW JERSEY, priority 2004, published 2009):

Biological target: T1, TRPM7/ChaK1 kinase domain (purified recombinant ChaK1-cat) (Mus musculus, UniProt Q923J1)
T1 construct: Expression and purification of recombinant ChaK1 kinase domain was performed as described; made in house; host or cells: bacteria
T1 sequence (Q923J1 1592-1822 limits assumed): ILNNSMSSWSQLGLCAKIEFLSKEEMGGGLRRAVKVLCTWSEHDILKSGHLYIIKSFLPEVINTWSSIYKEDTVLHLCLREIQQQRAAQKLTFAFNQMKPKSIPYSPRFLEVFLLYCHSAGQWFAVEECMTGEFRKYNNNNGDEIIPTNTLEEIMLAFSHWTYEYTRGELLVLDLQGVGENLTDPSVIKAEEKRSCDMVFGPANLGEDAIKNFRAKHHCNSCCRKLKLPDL
Test: ChaK1-cat kinase activity: phosphorylation of myelin basic protein with [γ-33P]ATP, SDS-PAGE and autoradiography
Format: biochemical
Experimental: The reaction was performed using purified recombinant ChaK1-cat and myelin basic protein. The samples were analyzed by SDS-PAGE and autoradiography; and
The bands corresponding to phosphorylated myelin basic protein (on the autoradiogram shown in B) were quantified using the Kodak 1D imaging program.
Protein samples were incubated in phosphorylation mixture consisting of 50 mM HEPES-KOH (pH 7.4), 10 mM MgCl2, 4 mM MnCl2, 0.5 mM CaCl2 (unless stated otherwise), 100 μM ATP, and 2 μCi of [γ-^33P]ATP (specific activity of 3000 Ci/mmol) with 0.1 μg of purified recombinant ChaK1. In assays involving annexin 0.5 μg of annexin was used. The reactions were run at 30° C. for 5 min and were terminated by incubation in an ice/water bath and addition of Laemmli sample buffer. Samples were boiled for 5 min and analyzed by SDS-PAGE and autoradiography.
We analyzed the sensitivity of ChaK1 to some known inhibitors of conventional protein kinases.

| Compound | effect on the kinase activity of ChaK1 (concentrations up to 0.1 mM (FIG. 6B)) | inhibitory effect on ChaK1 (staurosporine even at the concentration of 100 μM (FIG. 6B)) | IC50 [µM] |
| --- | --- | --- | --- |
| CN[C@@H]1C[C@H]2O[C@@](C)([C@@H]1OC)n1c3ccccc3c3c4c(c5c6ccccc6n2c5c31)C(=O)NC4 [staurosporine] | does not have any effect | did not produce any inhibitory effect | – |
| CC(=O)c1c(O)c(C)c(O)c(Cc2c(O)c3c(c(C(=O)/C=C/c4ccccc4)c2O)OC(C)(C)C=C3)c1O [rottlerin] | – | – | ~35 |
